Assay [1] is described as follows: Measurement of ATP content in media (luciferin-luciferase reaction, luminometer). Conditions: luterial media with SSF (12 hr) compared with luterial media with SSH (12 hr). The method, then: SSH and SSF were further added to the media and their effects on ATP production by luterial were examined. A mediacontaining SSF induced higher ATP production by luterialcompared to a mediawith SSH, thus finding a medium mix that is capable of efficiently increasing the ATP production by luterial (FIG. 18).
10 mL of each of four media, including a control, luterial, luterial with SSH (12 hr) and luterial with SSF (12 hr), was placed in a tube, and glucose (100 mg/mL) and ADP substrate (1 mM) were added thereto, followed by culture in water bath at 37° C. At 30-min intervals after the start of the culture, 100 μl of a sample was collected, placed in a tube, and diluted 10-fold with 900 μl of distilled water. Then, 10 μl of the sample was transferred into a fresh tube, and 100 μl of luciferase reagent contained in the ATP kit was added thereto, and measurement was immediately performed five times using a luminometer.

The test system of assay [2] is SKOV3 ovarian cancer cell line. As to the kind of experiment: MTT assay, growth inhibition of SKOV3 ovarian cancer cell line. Particulars: positive control drug; cell line not stated (SKOV3 and A2780 tested, FIG. 27). It is filed as cell-based. (Tetrazolium assays rely on reduction of a dye to a coloured formazan, in cell work by metabolically active cells.)

As for `O=c1c(O)c(-c2ccc(O)c(O)c2)oc2cc(O)ccc12` [SSF, fisetin], the “ATP concentration in luterial media with additive” value in assay [1] is recorded as “higher than that in the SSH-added group”.

For `N.N.[Cl][Pt][Cl]` [cisplatin], the midpoint of inhibition in assay [2], the IC50, lay at 100 µM.

For the origin of these results see patent US10590384B2, “Luterial and method for isolating and culturing the same” (LUTERION CO., LTD., priority 2014, dated 2020).
